Measurements from patent US11498899B2, “Nitrone herbicides” (FMC Corporation, priority 2016, dated 2022).

Assays:
[1] = tested on: barnyardgrass (Echinochloa crus-galli); test: Test A preemergence, visual injury rating 0-100 (0 no effect, 100 complete control); type: in vivo
[2] = tested on: foxtail, giant (giant foxtail, Setaria faberii); test: Test A preemergence, visual injury rating 0-100; type: in vivo
kochia (Kochia scoparia) [3] = test: Test A preemergence, visual injury rating 0-100; type: in vivo
[4] = tested on: pigweed (Amaranthus retroflexus); test: Test A preemergence, visual injury rating 0-100; type: in vivo
[5] = tested on: ragweed (common ragweed, Ambrosia elatior); test: Test A preemergence, visual injury rating 0-100; type: in vivo
[6] = tested on: ryegrass, Italian (Italian ryegrass, Lolium multiflorum); test: Test A preemergence, visual injury rating 0-100; type: in vivo
[7] = tested on: barnyardgrass (Echinochloa crus-galli); test: Test A postemergence, visual injury rating 0-100; type: in vivo; details: 0 to 100 scale
[8] = tested on: blackgrass (Alopecurus myosuroides); test: Test A postemergence, visual injury rating 0-100; type: in vivo; details: 0 to 100 scale
corn (Zea mays) = test: Test A postemergence, visual injury rating 0-100; type: in vivo; details: 0 to 100 scale
[9] = tested on: foxtail, giant (giant foxtail, Setaria faberii); test: Test A postemergence, visual injury rating 0-100; type: in vivo; details: 0 to 100 scale
[10] = tested on: galium (catchweed bedstraw, Galium aparine); test: Test A postemergence, visual injury rating 0-100; type: in vivo; details: 0 to 100 scale
kochia (Kochia scoparia) [11] = test: Test A postemergence, visual injury rating 0-100; type: in vivo; details: 0 to 100 scale
[12] = tested on: pigweed (Amaranthus retroflexus); test: Test A postemergence, visual injury rating 0-100; type: in vivo; details: 0 to 100 scale
[13] = tested on: ragweed (common ragweed, Ambrosia elatior); test: Test A postemergence, visual injury rating 0-100; type: in vivo; details: 0 to 100 scale
[14] = tested on: ryegrass, Italian (Italian ryegrass, Lolium multiflorum); test: Test A postemergence, visual injury rating 0-100; type: in vivo; details: 0 to 100 scale
[15] = tested on: wheat (Triticum aestivum); test: Test A postemergence, visual injury rating 0-100; type: in vivo; details: 0 to 100 scale
[16] = tested on: ducksalad (Heteranthera limosa); test: Test B flooded paddy test, visual rating 0-100; details: Flood, 250 g ai/ha, applied to paddy water, rated after 13 to 15 days
[17] = tested on: barnyardgrass (Echinochloa crus-galli); test: Test B flooded paddy test, visual rating 0-100; details: Flood, 250 g ai/ha, applied to paddy water, rated after 13 to 15 days
rice (Oryza sativa) = test: Test B flooded paddy test, visual rating 0-100 (0 no effect, 100 complete control); details: Flood, 250 g ai/ha, applied to paddy water, rated after 13 to 15 days

Row | SMILES | Barnyardgrass plant response rating (0 to 100 scale) ([1]; 125 g ai/ha) | Barnyardgrass plant response rating (0 to 100 scale) ([1]; 500 g ai/ha) | Foxtail, Giant plant response rating (0 to 100 scale) ([2]; 125 g ai/ha) | Foxtail, Giant plant response rating (0 to 100 scale) ([2]; 500 g ai/ha) | Kochia plant response rating (0 to 100 scale) (kochia (Kochia scoparia) [3]; 125 g ai/ha) | Kochia plant response rating (0 to 100 scale) (kochia (Kochia scoparia) [3]; 500 g ai/ha) | Pigweed plant response rating (0 to 100 scale) ([4]; 125 g ai/ha) | Pigweed plant response rating (0 to 100 scale) ([4]; 500 g ai/ha) | Ragweed plant response rating (0 to 100 scale) ([5]; 125 g ai/ha) | Ragweed plant response rating (0 to 100 scale) ([5]; 500 g ai/ha) | Ryegrass, Italian plant response rating (0 to 100 scale) ([6]; 125 g ai/ha) | Ryegrass, Italian plant response rating (0 to 100 scale) ([6]; 500 g ai/ha) | Barnyardgrass plant response rating ([7]; 125 g ai/ha) | Barnyardgrass plant response rating ([7]; 500 g ai/ha) | Blackgrass plant response rating ([8]; 125 g ai/ha) | Blackgrass plant response rating ([8]; 500 g ai/ha) | Corn plant response rating (corn (Zea mays); 125 g ai/ha) | Corn plant response rating (corn (Zea mays); 500 g ai/ha) | Foxtail, Giant plant response rating ([9]; 125 g ai/ha) | Foxtail, Giant plant response rating ([9]; 500 g ai/ha) | other results
1 | CC1=[N+]([O-])C(C(=O)Nc2cccc(F)c2F)C(c2ccc(C(F)(F)F)c(Br)c2)C1 (racemic) [Compound 73] | 90 | 90 | 80 | 90 | 20 | 60 | 40 | 70 | 50 | 80 | 50 | 90 | 30 | 70 | 40 | 80 | 50 | 70 | 40 | 70 | Galium plant response rating ([10]; 125 g ai/ha): 10; Galium plant response rating ([10]; 500 g ai/ha): 50; Kochia plant response rating (kochia (Kochia scoparia) [11]; 125 g ai/ha): 10; Kochia plant response rating (kochia (Kochia scoparia) [11]; 500 g ai/ha): 20; Pigweed plant response rating ([12]; 125 g ai/ha): 30; Pigweed plant response rating ([12]; 500 g ai/ha): 70; Ragweed plant response rating ([13]; 125 g ai/ha): 0; Ragweed plant response rating ([13]; 500 g ai/ha): 20; Ryegrass, Italian plant response rating ([14]; 125 g ai/ha): 0; Ryegrass, Italian plant response rating ([14]; 500 g ai/ha): 60; Wheat plant response rating ([15]; 125 g ai/ha): 0; Wheat plant response rating ([15]; 500 g ai/ha): 60; Ducksalad plant response rating (0 to 100 scale) [16]: 0; Barnyardgrass plant response rating (0 to 100 scale) [17]: 0; Rice plant response rating (0 to 100 scale) (rice (Oryza sativa)): 0
2 | COc1ccc(C2CC(C)=[N+]([O-])C2C(=O)Nc2cccc(F)c2F)cc1C(F)(F)F (racemic) [Compound 74] | 90 | 90 | 90 | 90 | 30 | 90 | 0 | 60 | 40 | 40 | 90 | 90 | 80 | 90 | 70 | 70 | 40 | 80 | 60 | 80 | Galium plant response rating ([10]; 125 g ai/ha): 20; Galium plant response rating ([10]; 500 g ai/ha): 50; Kochia plant response rating (kochia (Kochia scoparia) [11]; 125 g ai/ha): 0; Kochia plant response rating (kochia (Kochia scoparia) [11]; 500 g ai/ha): 10; Pigweed plant response rating ([12]; 125 g ai/ha): 20; Pigweed plant response rating ([12]; 500 g ai/ha): 40; Ragweed plant response rating ([13]; 125 g ai/ha): 0; Ragweed plant response rating ([13]; 500 g ai/ha): 20; Ryegrass, Italian plant response rating ([14]; 125 g ai/ha): 0; Ryegrass, Italian plant response rating ([14]; 500 g ai/ha): 50; Wheat plant response rating ([15]; 125 g ai/ha): 60; Wheat plant response rating ([15]; 500 g ai/ha): 60; Ducksalad plant response rating (0 to 100 scale) [16]: 20; Barnyardgrass plant response rating (0 to 100 scale) [17]: 45; Rice plant response rating (0 to 100 scale) (rice (Oryza sativa)): 0
3 | CC1=[N+]([O-])C(C(=O)Nc2cccc(F)c2F)C(c2cccc(C)c2C)C1 (racemic) [Compound 77] | 90 | 90 | 90 | 90 | 10 | 70 | 20 | 70 | 30 | 80 | 10 | 90 | 80 | 90 | 60 | 80 | 50 | 60 | 90 | 90 | Galium plant response rating ([10]; 125 g ai/ha): 50; Galium plant response rating ([10]; 500 g ai/ha): 70; Kochia plant response rating (kochia (Kochia scoparia) [11]; 125 g ai/ha): 0; Kochia plant response rating (kochia (Kochia scoparia) [11]; 500 g ai/ha): 20; Pigweed plant response rating ([12]; 125 g ai/ha): 0; Pigweed plant response rating ([12]; 500 g ai/ha): 20; Ragweed plant response rating ([13]; 125 g ai/ha): 20; Ragweed plant response rating ([13]; 500 g ai/ha): 60; Ryegrass, Italian plant response rating ([14]; 125 g ai/ha): 40; Ryegrass, Italian plant response rating ([14]; 500 g ai/ha): 70; Wheat plant response rating ([15]; 125 g ai/ha): 50; Wheat plant response rating ([15]; 500 g ai/ha): 70; Ducksalad plant response rating (0 to 100 scale) [16]: 100; Barnyardgrass plant response rating (0 to 100 scale) [17]: 75; Rice plant response rating (0 to 100 scale) (rice (Oryza sativa)): 0
4 | CC1=[N+]([O-])C(C(=O)Nc2cccc(F)c2F)C(c2cccc(F)c2C)C1 (racemic) [Compound 78] | 90 | 90 | 90 | 90 | 10 | 60 | 0 | 80 | 20 | 70 | 30 | 70 | 70 | 80 | 50 | 70 | 0 | 50 | 80 | 90 | Galium plant response rating ([10]; 125 g ai/ha): 60; Galium plant response rating ([10]; 500 g ai/ha): 60; Kochia plant response rating (kochia (Kochia scoparia) [11]; 125 g ai/ha): 20; Kochia plant response rating (kochia (Kochia scoparia) [11]; 500 g ai/ha): 50; Pigweed plant response rating ([12]; 125 g ai/ha): 0; Pigweed plant response rating ([12]; 500 g ai/ha): 20; Ragweed plant response rating ([13]; 125 g ai/ha): 0; Ragweed plant response rating ([13]; 500 g ai/ha): 60; Ryegrass, Italian plant response rating ([14]; 125 g ai/ha): 10; Ryegrass, Italian plant response rating ([14]; 500 g ai/ha): 50; Wheat plant response rating ([15]; 125 g ai/ha): 40; Wheat plant response rating ([15]; 500 g ai/ha): 60; Ducksalad plant response rating (0 to 100 scale) [16]: 100; Barnyardgrass plant response rating (0 to 100 scale) [17]: 75; Rice plant response rating (0 to 100 scale) (rice (Oryza sativa)): 0
